pIC50: −log10 of the molar value.
Test system: MDA-MB-468 spheroids with HUVEC/MSC, viability
Assay: Anticancer human tumor MDA-MB-468 cell line growth inhibition [PI3K];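 also: spheroids exposed to agents for seven days before readout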;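 as to viability, T/C: 100% = DMSO vehicle control viability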
Conditions: for pIC50: curve of first compound; for viability, T/C: stronger effect = lower value; active = viability on the fitted dose curve at most 10% of control; inactive = the rest
Method in brief: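 Complex 3D spheroids (cancer cells + endothelial HUVEC + mesenchymal stem cells); drug pairs of targeted agent x inavolisib/alpelisib/duvelisib/copanlisib; half-log series from ~Cmax, max 10 microM if Cmax unknown; endpoint viability.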

[1] = second compound 0.0316 µM, first compound 0.0316 µM
[2] = second compound 0.0316 µM, first compound 0.1 µM
[3] = second compound 0.1 µM, first compound 0.0316 µM
[4] = second compound 0.1 µM, first compound 0.1 µM
[5] = second compound 0.316 µM, first compound 0.0316 µM
[6] = second compound 0.316 µM, first compound 0.1 µM
[7] = second compound 1 µM, first compound 0.0316 µM
[8] = second compound 1 µM, first compound 0.1 µM
[9] = second compound 3.16 µM, first compound 0.0316 µM
[10] = second compound 3.16 µM, first compound 0.1 µM
[11] = second compound 10 µM, first compound 0.0316 µM
[12] = second compound 10 µM, first compound 0.1 µM

CC(C)NCC(C(=O)N1CCN(c2ncnc3c2C(C)CC3O)CC1)c1ccc(Cl)cc1 (centres undefined) + CC(Nc1ncnc2nc[nH]c12)c1cc2cccc(Cl)c2c(=O)n1-c1ccccc1
> 7.50: pIC50 (second compound 10 µM)
inactive: viability, T/C [1] 97.6% | viability, T/C [2] 86.2% | viability, T/C (second compound 0.0316 µM, first compound 0.316 µM) 76.4% | viability, T/C (second compound 0.0316 µM, first compound 1 µM) 50.4% | viability, T/C (second compound 0.0316 µM, first compound 3.16 µM) 36% | viability, T/C (second compound 0.0316 µM, first compound 10 µM) 25.7% | viability, T/C [3] 78.1% | viability, T/C [4] 87.9% | viability, T/C (second compound 0.1 µM, first compound 0.316 µM) 77.5% | viability, T/C (second compound 0.1 µM, first compound 1 µM) 48.3% | viability, T/C (second compound 0.1 µM, first compound 3.16 µM) 38.5% | viability, T/C (second compound 0.1 µM, first compound 10 µM) 25.8% | viability, T/C [5] 73.1% | viability, T/C [6] 80.2% | viability, T/C (second compound 0.316 µM, first compound 0.316 µM) 76.9% | viability, T/C (second compound 0.316 µM, first compound 1 µM) 51.2% | viability, T/C (second compound 0.316 µM, first compound 3.16 µM) 38.5% | viability, T/C (second compound 0.316 µM, first compound 10 µM) 27.4% | viability, T/C [7] 72.2% | viability, T/C [8] 64.9% | viability, T/C (second compound 1 µM, first compound 0.316 µM) 59.1% | viability, T/C (second compound 1 µM, first compound 1 µM) 46.4% | viability, T/C (second compound 1 µM, first compound 3.16 µM) 29.9% | viability, T/C (second compound 1 µM, first compound 10 µM) 27% | viability, T/C [9] 57.5% | viability, T/C [10] 57.7% | viability, T/C (second compound 3.16 µM, first compound 0.316 µM) 47% | viability, T/C (second compound 3.16 µM, first compound 1 µM) 40.8% | viability, T/C (second compound 3.16 µM, first compound 3.16 µM) 32.6% | viability, T/C (second compound 3.16 µM, first compound 10 µM) 25.6% | viability, T/C [11] 46.4% | viability, T/C [12] 41.2% | viability, T/C (second compound 10 µM, first compound 0.316 µM) 42.2% | viability, T/C (second compound 10 µM, first compound 1 µM) 34.7% | viability, T/C (second compound 10 µM, first compound 3.16 µM) 26.4% | viability, T/C (second compound 10 µM, first compound 10 µM) 21.4%
6.59: pIC50 (second compound 3.16 µM)
6.18: pIC50 (second compound 1 µM)
5.91: pIC50 (second compound 0.316 µM)
5.93: pIC50 (second compound 0.0316 µM)
6.00: pIC50 (second compound 0.1 µM)

CC(C)n1nc(-c2ccc3oc(N)nc3c2)c2c(N)ncnc21 + CC(Nc1ncnc2nc[nH]c12)c1cc2cccc(Cl)c2c(=O)n1-c1ccccc1
7.42: pIC50 (second compound 0.316 µM)
7.95: pIC50 (second compound 3.16 µM)
7.46: pIC50 (second compound 0.1 µM)
7.38: pIC50 (second compound 0.0316 µM)
> 9.50: pIC50 (second compound 10 µM)
inactive: viability, T/C (second compound 0.0316 µM, first compound 0.000316 µM) 81.5% | viability, T/C (second compound 0.0316 µM, first compound 0.001 µM) 81.4% | viability, T/C (second compound 0.0316 µM, first compound 0.00316 µM) 96.1% | viability, T/C (second compound 0.0316 µM, first compound 0.01 µM) 82.2% | viability, T/C [1] 60% | viability, T/C [2] 19.5% | viability, T/C (second compound 0.1 µM, first compound 0.000316 µM) 77.6% | viability, T/C (second compound 0.1 µM, first compound 0.001 µM) 91.5% | viability, T/C (second compound 0.1 µM, first compound 0.00316 µM) 77.9% | viability, T/C (second compound 0.1 µM, first compound 0.01 µM) 66% | viability, T/C [3] 54.4% | viability, T/C [4] 19.8% | viability, T/C (second compound 0.316 µM, first compound 0.000316 µM) 91.6% | viability, T/C (second compound 0.316 µM, first compound 0.001 µM) 59.7% | viability, T/C (second compound 0.316 µM, first compound 0.00316 µM) 77.4% | viability, T/C (second compound 0.316 µM, first compound 0.01 µM) 73.8% | viability, T/C [5] 55.2% | viability, T/C [6] 17.4% | viability, T/C (second compound 1 µM, first compound 0.000316 µM) 69.3% | viability, T/C (second compound 1 µM, first compound 0.001 µM) 68.4% | viability, T/C (second compound 1 µM, first compound 0.00316 µM) 64.1% | viability, T/C (second compound 1 µM, first compound 0.01 µM) 57% | viability, T/C [7] 49.6% | viability, T/C [8] 15.8% | viability, T/C (second compound 3.16 µM, first compound 0.000316 µM) 50.2% | viability, T/C (second compound 3.16 µM, first compound 0.001 µM) 54.8% | viability, T/C (second compound 3.16 µM, first compound 0.00316 µM) 57.4% | viability, T/C (second compound 3.16 µM, first compound 0.01 µM) 50.9% | viability, T/C [9] 36.2% | viability, T/C [10] 13.2% | viability, T/C (second compound 10 µM, first compound 0.000316 µM) 41.5% | viability, T/C (second compound 10 µM, first compound 0.001 µM) 39.7% | viability, T/C (second compound 10 µM, first compound 0.00316 µM) 38.8% | viability, T/C (second compound 10 µM, first compound 0.01 µM) 40% | viability, T/C [11] 26.4% | viability, T/C [12] 9.66%
7.62: pIC50 (second compound 1 µM)
